Data: the NIST ThermoML archive (doi:10.1021/je7003066)
± gives the expanded uncertainty stated by the source.

Legend:
[1] = refractive index (Na D-line) (dimensionless); details: 101.33 kPa, Liquid, Standard Abbe refractometry
[2] = 101.33 kPa, Liquid; for viscosity: Capillary tube (Ostwald / Ubbelohde) method
[3] = molar heat capacity at constant pressure; details: 101.33 kPa, Liquid, Small sample (50 mg) DSC

CC1CCCO1 (configuration not stated) [2-methyltetrahydrofuran]
Details | mass density, [2] [kg/m3] | molar heat capacity at constant pressure, [3] [J/K/mol] | refractive index, [1] | viscosity, [2] [mPa·s]
293.15 K | 852.95 ± 0.68 | 155.3 ± 3.1 | 1.4085 ± 0.0008 | 0.492 ± 0.04
303.15 K | 842.8 ± 0.7 | 158.6 ± 3.2 | 1.4017 ± 0.0007 | 0.443 ± 0.04
313.15 K | 832.38 ± 0.72 | 162.1 ± 3.2 | 1.3959 ± 0.0007 | 0.416 ± 0.04
